# Measured values published in patent US12466849B2, “Anti-viral and anti-tumoral compounds” (YEDA RESEARCH AND DEVELOPMENT CO. LTD, priority 2020, dated 2025).
# Assays:
# HCMV AD169 = experiment: HCMV plaque reduction assay, MRC-5 cells, strain AD169; type: cell-based, Human cytomegalovirus; conditions: hCMV AD169, MRC5 cells, plaque assay, 6-days duration
# HFF cells = experiment: Cell proliferation assay, human foreskin fibroblast (HFF) cells; type: cell-based; conditions: 72 h, cell number
# [1] = system: BK virus (BKV), Gardner strain
# JC virus (JCV) [2] = system: JC virus (JCV)
# [3] = system: Human cytomegalovirus (HCMV), strain AD169; conditions: for EC50 / EC90: drug concentration 0.048-150 μM
# JC virus (JCV) [4] = experiment: Secondary JCV assay (qPCR), COS7 cells; conditions: secondary JCV assay, COS7 cells; for EC50 / EC90: 7 days, qPCR, test drug concentration 0.001-100 μM; for Activity: class by SI50
# [5] = target: T1, SARS-Cov2 RdRp (nsp12-nsp7-nsp8) (Severe acute respiratory syndrome coronavirus 2, UniProt P0DTD1); type: biochemical; conditions: after addition of GTP and CTP (third and fourth nucleotides)
# [6] = target: T1, SARS-Cov2 RdRp (nsp12-nsp7-nsp8); type: biochemical; conditions: primer extension; analog at 100 uM, printed 100 mM
# [7] = target: mitochondrial DNA polymerase (POLG1) (Homo sapiens, UniProt P54098); experiment: Inhibition of mitochondrial DNA polymerase (POLG1)
# [8] = system: Rift Valley fever virus (RVFV); experiment: microbe, parasite or virus in culture; conditions: Vero 76
# Yellow fever virus (YFV) [9] = system: Yellow fever virus (YFV)
# SARS-CoV [10] = experiment: microbe, parasite or virus in culture; conditions: Severe acute respiratory syndrome coronavirus, Vero 76
# RSV [11] = system: RSV
# in vitro [12] = conditions: human
# SARS-CoV-2 [13] = experiment: microbe, parasite or virus in culture; conditions: Severe acute respiratory syndrome coronavirus 2, Vero 76
# Yellow fever virus (YFV) [14] = experiment: microbe, parasite or virus in culture; conditions: Huh-7
# enterovirus-68 (EV-68) [15] = system: enterovirus-68 (EV-68)
# [16] = system: Venezuelan equine encephalitis virus (VEEV); experiment: microbe, parasite or virus in culture; conditions: Vero 76
# enterovirus-68 (EV-68) [17] = experiment: organism not typed; conditions: RD
# [18] = system: Venezuelan equine encephalitis virus (VEEV)
# SARS-CoV-2 [19] = conditions: SARS-CoV-2; SI = CC50/EC50
# TCRV [20] = experiment: microbe, parasite or virus in culture; conditions: Mammarenavirus tacaribeense, Vero C1008
# [21] = system: Japanese encephalitis virus (JEV)
# West Nile virus (WNV) [22] = system: West Nile virus (WNV)
# influenza A(H1N1) [23] = system: influenza A(H1N1)
# [24] = system: Rift Valley fever virus (RVFV)
# [25] = system: Japanese encephalitis virus (JEV); experiment: microbe, parasite or virus in culture; conditions: Vero 76
# Powassan virus (POWV) [26] = conditions: POWV; SI = CC50/EC50
# poliovirus-1 (POV-1) [27] = experiment: organism not typed; conditions: Vero 76
# in vitro [28] = conditions: African green monkey
# Powassan virus (POWV) [29] = experiment: microbe, parasite or virus in culture; conditions: BHK-21
# Zika virus [30] = experiment: microbe, parasite or virus in culture; conditions: Vero 76
# adenovirus-5 (Ad5) [31] = experiment: organism not typed; conditions: A549
# dengue virus-2 (DV-2) [32] = conditions: DV-2; SI = CC50/EC50
# Influenza B [33] = experiment: microbe, parasite or virus in culture; conditions: MDCK
# influenza A(H5N1) [34] = system: influenza A(H5N1)
# in vitro [35] = conditions: Syrian hamster
# adenovirus-5 (Ad5) [36] = system: adenovirus-5 (Ad5)
# influenza A(H1N1) [37] = experiment: microbe, parasite or virus in culture; conditions: H1N1, MDCK
# TCRV [38] = system: TCRV
# RSV [39] = experiment: microbe, parasite or virus in culture; conditions: human respiratory syncytial virus, MA104
# poliovirus-1 (POV-1) [40] = system: poliovirus-1 (POV-1)
# Zika virus [41] = system: Zika virus
# influenza A(H5N1) [42] = experiment: microbe, parasite or virus in culture; conditions: H5N1, MDCK
# SARS-CoV [43] = system: SARS-CoV
# dengue virus-2 (DV-2) [44] = experiment: microbe, parasite or virus in culture; conditions: Huh-7
# West Nile virus (WNV) [45] = experiment: microbe, parasite or virus in culture; conditions: Vero 76
# Influenza B [46] = system: Influenza B
# [47] = target: T2, Inosine-5′-Monophosphate Dehydrogenase 2 (IMPDH2) (Homo sapiens, UniProt P12268); experiment: IMPDH inhibitor screening assay (BioVision kit); type: biochemical; conditions: IMPDH activity, colorimetric OD 450 nm
# T2 construct: purchased BioVision (California, USA)
# [48] = Vero 76 cells without virus, test compounds
# mitochondrial DNA polymerase (POLG1), sequence (P54098 whole entry): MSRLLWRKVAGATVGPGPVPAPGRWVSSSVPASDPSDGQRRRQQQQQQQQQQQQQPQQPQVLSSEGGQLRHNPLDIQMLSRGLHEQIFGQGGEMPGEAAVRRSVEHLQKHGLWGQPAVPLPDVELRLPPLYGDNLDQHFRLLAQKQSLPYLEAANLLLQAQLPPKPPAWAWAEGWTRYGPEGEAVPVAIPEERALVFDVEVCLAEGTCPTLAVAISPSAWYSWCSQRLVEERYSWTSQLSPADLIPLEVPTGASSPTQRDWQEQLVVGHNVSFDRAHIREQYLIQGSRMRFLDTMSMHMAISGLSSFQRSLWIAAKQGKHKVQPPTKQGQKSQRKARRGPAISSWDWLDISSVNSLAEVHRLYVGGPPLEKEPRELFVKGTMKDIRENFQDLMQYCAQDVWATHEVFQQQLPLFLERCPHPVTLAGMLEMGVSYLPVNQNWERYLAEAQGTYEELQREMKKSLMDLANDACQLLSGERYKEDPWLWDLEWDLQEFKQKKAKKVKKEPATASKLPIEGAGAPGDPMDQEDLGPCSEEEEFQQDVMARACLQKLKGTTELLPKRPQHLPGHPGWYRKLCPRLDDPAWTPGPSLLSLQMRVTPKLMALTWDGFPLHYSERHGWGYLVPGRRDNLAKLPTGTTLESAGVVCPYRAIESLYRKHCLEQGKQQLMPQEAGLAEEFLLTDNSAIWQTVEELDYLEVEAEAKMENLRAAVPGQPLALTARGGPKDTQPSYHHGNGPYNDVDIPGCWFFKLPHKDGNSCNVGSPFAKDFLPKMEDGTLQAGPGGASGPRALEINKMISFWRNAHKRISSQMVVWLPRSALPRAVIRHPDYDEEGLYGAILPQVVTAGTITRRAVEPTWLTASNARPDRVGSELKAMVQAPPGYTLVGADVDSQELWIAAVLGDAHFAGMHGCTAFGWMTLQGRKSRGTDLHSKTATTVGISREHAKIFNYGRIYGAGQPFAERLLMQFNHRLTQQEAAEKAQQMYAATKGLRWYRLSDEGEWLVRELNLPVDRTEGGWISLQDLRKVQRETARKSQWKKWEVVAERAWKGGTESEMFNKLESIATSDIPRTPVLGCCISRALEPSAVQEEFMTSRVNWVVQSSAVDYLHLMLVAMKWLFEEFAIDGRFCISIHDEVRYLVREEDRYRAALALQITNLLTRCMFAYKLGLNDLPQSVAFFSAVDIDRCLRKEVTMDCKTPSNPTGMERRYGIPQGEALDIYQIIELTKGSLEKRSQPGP
compound,measurement,setting,value
CCC(CC)COC(=O)[C@H](C)N[P@](=O)(OCC1=CC(O)C(n2ccc(=O)[nH]c2=O)O1)Oc1ccccc1 (stereo partly drawn) [AB23031],EC50,HCMV AD169,> 100 µM
same,IC50,HFF cells,> 100 µM
same,Activity,[1],HI (key: NA (Not Active) SI50 = 0-3.9; LO (Slightly Active) SI50 = 4-9.9; MOD (Moderately Active) SI50 = 10-19.9; HI (Highly Active) SI50 = ≥20)
same,CC50,[1],> 150 µM
same,EC50,[1],5.12 µM
same,EC90,[1],> 150 µM
same,activity against BK virus (in words),[1],highly active
same,CC50,JC virus (JCV) [2],> 100 µM
same,CC50,MOLT-3 cells,55.4 µM
same,Activity,[3],HI (key: NA (Not Active) SI50 = 0-3.9; LO (Slightly Active) SI50 = 4-9.9; MOD (Moderately Active) SI50 = 10-19.9; HI (Highly Active) SI50 = ≥20)
same,CC50,[3],> 150 µM
same,activity against hCMV (in words),[3],highly active
same,EC50,[3],0.15 µM
same,EC90,[3],> 150 µM
same,CC50,MRC-5 cells,> 100 µM
same,EC50,JC virus (JCV) [4],93.8 µM
same,EC90,JC virus (JCV) [4],> 100 µM
same,Activity,JC virus (JCV) [4],NA (NA (Not Active) SI50 = 0-3.9)
"O=c1ccn(C2OC(COP(=O)(O)OP(=O)(O)OP(=O)(O)O)=CC2O)c(=O)[nH]1 (stereo not drawn) [ddhUTP, 3′-deoxy-3,4-didehydro-UTP]",chain termination of RNA synthesis (in words),[5],caused chain termination of RNA synthesis
same,incorporation into RNA by SARS-Cov2 RdRp (in words),[6],incorporated onto RNA as UTP analog
same,substrate for POLG1 (in words),[7],poor substrates
CCC(CC)COC(=O)[C@H](C)N[P@](=O)(OCC1=CC(O)C(n2cnc3c(=O)[nH]c(N)nc32)O1)Oc1ccccc1 (stereo partly drawn) [AB23032],EC50,HCMV AD169,> 100 µM
same,Activity,[1],NA (key: NA (Not Active) SI50 = 0-3.9; MOD (Moderately Active) SI50 = 4-9.9; HI (Highly Active) SI50 = ≥10)
same,CC50,[1],> 150 µM
same,EC50,[1],77.2 µM
same,EC90,[1],149 µM
same,CC50,JC virus (JCV) [2],> 100 µM
same,Activity,[3],NA (key: NA (Not Active) SI50 = 0-3.9; MOD (Moderately Active) SI50 = 4-9.9; HI (Highly Active) SI50 = ≥10)
same,CC50,[3],> 150 µM
same,EC50,[3],> 150 µM
same,EC90,[3],> 150 µM
same,CC50,MRC-5 cells,> 100 µM
same,EC50,JC virus (JCV) [4],> 100 µM
same,EC90,JC virus (JCV) [4],> 100 µM
same,Activity,JC virus (JCV) [4],NA (NA (Not Active) SI50 = 0-3.9)
"Nc1ccn([C@@H]2OC(CO)=C[C@H]2O)c(=O)n1 [AB21650, 3′-deoxy-3′,4′-didehydro cytidine]",EC50,[8],> 2000 µM
same,CC50,"Yellow fever virus (YFV) [9]; Huh7 cells without virus, test compounds",> 2000 µM
same,SI,"Yellow fever virus (YFV) [9]; YFV, SI = CC50/EC50",0
same,EC50,SARS-CoV [10],> 2000 µM
same,CC50,RSV [11]; African green monkey,> 2000 µM
same,SI,"RSV [11]; RSV, SI = CC50/EC50",0
same,CC50,in vitro [12],> 2000 µM
same,EC50,SARS-CoV-2 [13],> 2000 µM
same,EC50,Yellow fever virus (YFV) [14],> 2000 µM
same,SI,"enterovirus-68 (EV-68) [15]; EV-68, SI = CC50/EC50",2
same,CC50,enterovirus-68 (EV-68) [15]; human,1800 µM
same,EC50,[16],> 2000 µM
same,EC50,enterovirus-68 (EV-68) [17],910 µM
same,SI,"[18]; VEEV, SI = CC50/EC50",0
same,CC50,[18]; [48],> 2000 µM
same,SI,SARS-CoV-2 [19],0
same,EC50,TCRV [20],> 2000 µM
same,CC50,[21]; African green monkey,> 2000 µM
same,SI,"[21]; JEV, SI = CC50/EC50",0
same,CC50,West Nile virus (WNV) [22]; African green monkey,> 2000 µM
same,SI,"West Nile virus (WNV) [22]; WNV, SI = CC50/EC50",0
same,SI,influenza A(H1N1) [23]; H1N1,0
same,CC50,influenza A(H1N1) [23]; dog,> 2000 µM
same,SI,"[24]; RVFV, SI = CC50/EC50",0
same,CC50,[24]; [48],> 2000 µM
same,EC50,[25],> 2000 µM
same,SI,Powassan virus (POWV) [26],0
same,EC50,poliovirus-1 (POV-1) [27],> 2000 µM
same,CC50,in vitro [28],> 2000 µM
same,EC50,Powassan virus (POWV) [29],> 2000 µM
same,EC50,Zika virus [30],> 2000 µM
same,EC50,adenovirus-5 (Ad5) [31],> 2000 µM
same,SI,dengue virus-2 (DV-2) [32],0
same,EC50,Influenza B [33],> 2000 µM
same,CC50,"influenza A(H5N1) [34]; MDCK cells without virus, test compounds",> 2000 µM
same,SI,"influenza A(H5N1) [34]; influenza A(H5N1), SI = CC50/EC50",0
same,CC50,in vitro [35],> 2000 µM
same,SI,"adenovirus-5 (Ad5) [36]; Ad5, SI = CC50/EC50",0
same,CC50,adenovirus-5 (Ad5) [36]; human,> 2000 µM
same,EC50,influenza A(H1N1) [37],> 2000 µM
same,CC50,TCRV [38]; African green monkey,> 2000 µM
same,SI,"TCRV [38]; TCRV, SI = CC50/EC50",0
same,EC50,RSV [39],> 2000 µM
same,SI,"poliovirus-1 (POV-1) [40]; POV-1, SI = CC50/EC50",0
same,CC50,poliovirus-1 (POV-1) [40]; [48],> 2000 µM
same,CC50,Zika virus [41]; African green monkey,> 2000 µM
same,SI,"Zika virus [41]; Zika, SI = CC50/EC50",0
same,EC50,influenza A(H5N1) [42],> 2000 µM
same,SI,"SARS-CoV [43]; SARS-CoV, SI = CC50/EC50",0
same,CC50,SARS-CoV [43]; [48],> 2000 µM
same,EC50,dengue virus-2 (DV-2) [44],> 2000 µM
same,EC50,West Nile virus (WNV) [45],> 2000 µM
same,SI,Influenza B [46],0
same,CC50,Influenza B [46]; dog,> 2000 µM
"NC(=O)c1ncn([C@@H]2O[C@H](COP(=O)(O)O)[C@@H](O)[C@H]2O)n1 [RMP, Ribavirin 5′-monophosphate]",IC50,[47],2.6 ± 1.8 µM
